In a melting point compilation (Tetko et al.; mined from patent text by program, amines drawn as free bases though some values may be those of a salt):

Compound | melting point
Cn1cc(-c2cccc(N3CCc4c(sc5c4CCCC5)C3=O)c2CO)nc(Nc2cnn(CCO)c2)c1=O | 198 to 199 °C
CS(=O)(=O)N1CCC(Nc2ncc(C(=O)c3ccccc3)c(N)n2)CC1 | 249 to 250 °C
COC(=O)c1ccc(-c2cccc(C(=O)OC)c2)cc1 | 86 to 87 °C
O=C1c2ccccc2C(=O)N1CCCCN1CCN(c2csc3cc(F)ccc23)CC1 | 94 to 95 °C
Fc1ccccc1C(c1ccccc1)n1cccc1 (stereo unspecified) | 81 to 82.5 °C
CC(C)N(CCC12CC3CC(CC(C3)C1)C2)C(=O)NCCCc1ccncc1 | 132 to 134 °C
O=C(O)CCNC(=S)Nc1ccc2cn[nH]c2c1 | 175 °C
CC(=O)OC1CSC(Oc2ccc(I)nc2Cl)C(OC(C)=O)C1OC(C)=O (stereo unspecified) | 188 °C
Cc1ccn2c(C)c(CCc3ccc4nc(N(C)C)oc4c3)nc2c1 | 67 to 69 °C
CCOC(=O)c1cnc(Cl)cc1NC | 61.4 to 63.1 °C
CN(C)C(=O)n1nc(C(C)(C)C)cc1S(C)(=O)=O | 126 to 128 °C
COC(=O)C(C)(N)Cc1c[nH]c2ccc(OCC3CC3)cc12 (racemic) | 172 °C
CCCCNC1NC(=O)N(c2cccc(C(F)(F)F)c2)C(=O)N1 | 245 to 247 °C
CC1(C)CC(N2CCCCCC2=O)CC(C)(C)N1 | 113 to 117 °C
CN1CCN(C(=O)CCCCCNC(=O)c2cc(OCc3ccccc3)ccc2OCc2ccccc2)CC1 | 78 to 79 °C
CC(=O)Nc1ccc(OC2SCC(O)C(O)C2O)cc1 (stereo unspecified) | 238 °C
CCCSc1ncc(CC(C(=O)O)C(=O)OCC)n1Cc1ccccc1Cl (stereo unspecified) | 118 to 120 °C
CC(C)(C)OC(=O)NC(Cc1ccccc1)C(O)CNCC(O)C(Cc1ccc(OCc2ccccc2)cc1)NC(=O)OCc1ccccc1 (stereo unspecified) | 154 to 156 °C
c1cnc2nc(-c3nccs3)ccc2c1 | 160 to 165 °C
CC(C)SN1N=C(c2cccc([N+](=O)[O-])c2)C(SC(C)C)(SC(C)C)C1=O | 73 to 74 °C
COC(c1sc2ccc(Cl)cc2c1Cl)C(C)NC(=O)c1cn(C)nc1C(F)F (stereo unspecified) | 128 to 132 °C
CCOC(=O)c1cn(-c2ccc(F)c(OC)c2)c2c(Cl)c(F)c(F)cc2c1=O | 245 to 246 °C
COc1ccc(NC(=O)c2nc3c(s2)C(=O)C=C(NCCCN(C)CCCNC2=CC(=O)c4sc(C)nc4C2=O)C3=O)cc1 | 141 to 142 °C
COC(=O)c1ccc(C)c(-n2c(C)cc(OCc3ccccc3CNC(=O)Nc3cc(C(C)(C)C)nn3-c3ccc(O)cc3)c(Cl)c2=O)c1 | 199 to 200 °C

Compound | melting point
CC[C@H]1c2ccc(C#N)n2-c2cc(F)c(F)cc2N1S(=O)(=O)c1ccc(O)cc1 | 191 to 192 °C
COc1ccc2ccc(C(=O)NC(C)C)c(OC(C)C)c2c1 | 62 to 64 °C
CC(=O)Nc1cccc(C(C)=O)c1C(=O)O | 131 °C
CC(C)CCCC(C)Cc1nc2c3ccsc3c3sccc3c2nc1CC(C)CCCC(C)C (stereo unspecified) | 57.5 to 58.7 °C
COC(=O)c1cc(-c2ccc(F)c(C)c2)nn(CC(C)C)c1=O | 71.4 to 73.8 °C
COc1ccc2c(c1)C(=NNc1ccc(S(N)(=O)=O)cc1)C(=O)N2 | > 250 °C
CCOC(=O)C1=C(CC)N(CCOC(=O)c2ccccc2)C(=O)NC1c1ccccc1 (stereo unspecified) | 111 °C
COC(=O)/C=C/C=C(c1ccccc1OC)c1ccccc1OC | 100 to 102 °C
CCCc1c(C(C)C)nc(C(C)C)c(CO)c1-c1ccc(F)cc1 | 49 to 54 °C
COc1cc(N)ccc1-c1ccccc1 | 56 °C
Cc1[nH]c(C=O)c(C)c1CNC(=O)C(F)(F)F | 200 °C
CCOC(=O)CCCn1c(=O)n(CCN2CCN(c3ccccc3OC)CC2)c(=O)c2cscc21 | 108 to 110 °C
CC(=O)C(=Cc1c(-c2ccccc2)nc2sc(C)nn12)C(=O)N(C)C | 185 to 187 °C
N#CC(C(=O)C(=O)C(C#N)c1ccc(Cl)cc1)c1ccc(Cl)cc1 (stereo unspecified) | 255 °C
CCOC(=O)c1cnc2nc(N3CCN(C)CC3)ncc2c1Cl | 173 to 175 °C
CCCCc1nn(-c2ccc(C(F)(F)F)cn2)cc1/C=C/C(=O)OCC | 84 to 85 °C
CCC1C(=O)N(CC)CCc2cc(Nc3ncc(Cl)c(N[C@@H]4CCCC[C@H]4NS(C)(=O)=O)n3)c(OC)cc21 (stereo partly specified) | 126 to 127 °C
CC#COc1ccc2c(=O)cc(-c3ccccc3)oc2c1 | 199 to 200 °C
COc1ccc(C(=O)C(C(=O)Nc2ccccc2Cl)N2C(=O)c3ccccc3C2=O)cc1[N+](=O)[O-] (stereo unspecified) | 203 to 205 °C
O=C(O)CCc1cc2nc(Cl)ccc2n1S(=O)(=O)c1cccc(OC(F)(F)F)c1 | 146 °C
CSCc1cc2ccccc2n(-c2ccccc2)c1=O | 138 to 140 °C
Oc1cc(OCC(O)COc2ccccc2)ccc1C(=S)c1ccc(-c2ccccc2)cc1 (stereo unspecified) | 101 to 102 °C
O=[N+]([O-])c1ccc(-c2ccc(S(=O)c3ccc(Cl)c([N+](=O)[O-])c3)cc2)cc1 (stereo unspecified) | 220 to 222 °C
O=C1c2c(O)cccc2C(SCCS)c2cccc(O)c21 | 133 to 134 °C

Compound | melting point
Cc1ccc(NC(=O)c2cccc(C(F)(F)F)c2)cc1/C=C/n1cnc2c(Nc3ccc(P(C)(C)=O)cc3)ncnc21 | 230 to 234 °C
O=S(=O)(CCCCl)Nc1cccc(Oc2cccc3cccnc23)c1 | 138 to 140 °C
COC(=O)CCc1cnoc1-c1ccc(F)cc1F | 40 to 41 °C
CCOc1c(Br)ccc(C(=O)OC)c1N(C)S(C)(=O)=O | 82 to 88 °C
Cn1cc(-c2nc3c(N[C@H]4[C@@H](C(N)=O)[C@@H]5C=C[C@H]4C5)c(Br)cnc3[nH]2)cn1 | 255 to 258 °C
COc1ccc(S(C)(=O)=O)cc1C(=O)NCC1CCCN1C12CCC(CC1)C2 (stereo unspecified) | 125 °C
COc1cc2c(cc1OC)-c1ncc(C(N)=O)c(=O)n1CC2 | 313 to 315 °C
O=C1CCc2c1cccc2C(=O)c1ccc(Cl)cc1 | 146 °C
CC1CN(c2cc3ccccc3c(=O)[nH]2)CCN1 (stereo unspecified) | 164 to 167 °C
CC(C)(C)c1ccc(NC(=O)N2CCC3(CC2)CC(CCc2ccccc2)=NO3)cc1 | 153 to 154 °C
O=C(OCN1C(=O)c2ccccc2C1=O)c1ccccc1N=Nc1ccc(O)c(O)n1 | 196 to 201 °C
Cc1[nH]cc2c(=O)n(-c3ccc(Cl)cc3)nc-2c1-c1ccc(-c2cccnc2)cc1 | 308 to 309 °C
OCCC1(c2ccc(Cl)c(Cl)c2)CCCNC1 (stereo unspecified) | 122 °C
CCC(O)c1c(C(C)C)nc(C(C)C)c(CO)c1-c1ccc(F)cc1 (stereo unspecified) | 173 to 175 °C
CCOC(=O)c1[nH]c2ccc(C(O)(C(F)(F)F)C(F)(F)F)cc2c1-c1ccccc1 | 185 to 193 °C
COC(=O)C1=C(C)NC(C)=C(C(=O)OC)C1c1cc([N+](=O)[O-])ccc1OCCCCNCC(O)COc1ccccc1 (stereo unspecified) | 131 to 133 °C
Nc1nc(N)c2nc(CNc3ccc(Cl)cc3)cnc2n1 | > 360 °C
COC(=O)COc1cccc2c(CCS(=O)(=O)CCc3ccccc3)c(C)oc12 | 91 to 92 °C
O=C(O)CCC(=O)NCCCCCC1CCSS1 (stereo unspecified) | 74 °C
O=C(c1cccc(OCCCN2C(=O)c3ccccc3C2=O)c1)N1CCCCC1 | 120 to 122 °C
COc1ccc(CN2C(=O)[C@@H](NC(=O)Cc3ccccc3)[C@H]2CI)c(OC)c1 (relative stereo) | 181 to 182 °C
O=C1c2ccccc2C(=O)N1CCS(=O)(=O)c1ccccc1 | 186 to 188 °C
C=Cc1ccc(-c2ccc3cc(C(=O)OCc4ccccc4)ccc3c2)cc1C12CC3CC(CC(C3)C1)C2 | 158 to 160 °C
O=C1c2ccc(OS(=O)(=O)C(F)(F)F)cc2CCC1Cc1ccccc1 (stereo unspecified) | 52 to 53.7 °C

Compound | melting point
CCCc1c(S)ccc2c(=O)cc(C(=O)O)oc12 | 206 to 208 °C
CC(C(=O)O)c1ccc2c(c1)C(=O)C(C(C)C)C2 (stereo unspecified) | 130 to 132 °C
CCc1ccc([N+](=O)[O-])cc1CNC(C)=O | 123 to 128 °C
CN1CCN(Cc2nnc(S)n2Cc2cc(F)cc(F)c2)CC1 | 200 to 201 °C
Cc1ccc(N2C(=O)C(O)=C(C(=O)c3ccc(C(C)C)cc3)C2c2ccc(OC(F)(F)F)cc2)cn1 (stereo unspecified) | 214 to 218 °C
O=C(O)c1ccc(N2C(=O)CCC2C(=O)O)c([N+](=O)[O-])c1 (stereo unspecified) | 235 to 237 °C
CCCOc1cc2c(cc1/C=C/c1ccc(C(=O)OCC)cc1)C(C)(C)CCC2(C)C | 97 to 100 °C
Cc1oc(-c2ccco2)nc1COc1ccc(Cc2nc(CCC(=O)O)c(-c3ccccc3)o2)cc1 | 154 to 155 °C
Nc1cc(C(=O)O)ccc1OCCCCCCc1cccc(O)c1O | 172 to 174 °C
N#Cc1ccc(N2CCC(CO)CC2)cc1 | 148 to 150 °C
CSC(C)(C)C(NS(=O)(=O)c1ccc(Oc2ccccc2)cc1)C(=O)O (stereo unspecified) | 156 to 158 °C
COn1c(-c2ccccc2)nc2ccc(Cn3ccnc3)cc21 | 142 °C
CCOC(=O)c1c(N)sc(N=Cc2cccs2)c1C(=O)OCC | 114 to 116 °C
Clc1ccc2c(c1)NC(c1ccncc1)c1cc(Cl)ccc1O2 (stereo unspecified) | 202 to 205 °C
CCCOc1cc(-c2cc3c(=O)[nH]c(C)nc3cc2C(C)C)ccc1Cl | 236 °C
Cn1c(=O)n(CC(=O)OCCF)c(=O)n(-c2cc(Oc3ncc(C(F)(F)F)cc3Cl)ccc2Br)c1=O | 93 to 95 °C
COc1cc(-c2nc(-c3ccc(N(C)C)cc3)c(-c3ccc(N(C)C)cc3)[nH]2)cc(OC)c1O | 258 to 260 °C
O=S1CCn2c1nc(-c1ccc(F)cc1)c2-c1ccncc1 (stereo unspecified) | 229 to 231 °C
CS(=O)(=O)c1ccc(-c2cc(CO[N+](=O)[O-])nn2C2CCCCCC2)cc1 | 119 to 120 °C
CS(=O)(=O)c1ccc(-c2ccc(Cl)n2-c2ccc(F)cc2)cc1 | 180 to 182 °C
CSCC(=O)[C@H](Cc1ccc(Cl)cc1)NC(=O)[C@H](CC(C)C)NC(=O)OCc1ccccc1 | 119 to 121 °C
NCc1nc(-c2ncn3c2[C@@H]2CCN2C(=O)c2ccccc2-3)no1 | 211 to 214 °C
COc1ccc2c(n1)c(CCNC(C)=O)c1n2CCCC1 | 89 to 90 °C
COC(=O)CCc1ccccc1-c1[nH]c2cccc3c2c1CCNC3=O | 201 to 202 °C
